Measured values from ChEMBL document CHEMBL1201862, “PubChem BioAssay data set” (2004).
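Growth conditions: 96-well plates. Treatment: test compound, 48 hours, 5 concentrations. Analysis: linear interpolation between bracketing concentrations; unreached endpoints set to highest concentration. At the GI50, growth is halved.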 Activity calls are given as the source filed them. No stated cut-off is given here; in the data, active = GI50 up to about 1.1 µM and inactive = higher.

How the values were obtained:
Experiment in all cases: inhibition of tumour cell growth, NCI panel, 48 h
786-0 = test system: 786-0
A498 = test system: A498
A549 = test system: A549
CCRF-CEM = test system: CCRF-CEM
DU-145 = test system: DU-145
HCT-116 = test system: HCT-116
KM12 = test system: KM12
MDA-N = test system: MDA-N
MOLT-4 = test system: MOLT-4
NCI-H226 = test system: NCI-H226
OVCAR-3 = test system: OVCAR-3
PC-3 = test system: PC-3
SF-295 = test system: SF-295
SF-539 = test system: SF-539
SK-OV-3 = test system: SK-OV-3
SNB-19 = test system: SNB-19
SNB-75 = test system: SNB-75
SW-620 = test system: SW-620
TK-10 = test system: TK-10
UACC-62 = test system: UACC-62

COC(=O)Nc1nc(=O)c2ccccc2[nH]1
GI50 (786-0): > 100 µM (inactive) | GI50 (A498): > 10 µM (inactive) | GI50 (A549): 0.0775 µM (active) | GI50 (CCRF-CEM): > 100 µM (inactive) | GI50 (DU-145): > 100 µM (inactive) | GI50 (HCT-116): 48.8 µM (inactive) | GI50 (KM12): 90.4 µM (inactive) | GI50 (MDA-N): 19.5 µM (inactive) | GI50 (MOLT-4): > 100 µM (inactive) | GI50 (NCI-H226): > 100 µM (inactive) | GI50 (OVCAR-3): > 100 µM (inactive) | GI50 (PC-3): > 100 µM (inactive) | GI50 (SF-295): 30.6 µM (inactive) | GI50 (SF-539): > 100 µM (inactive) | GI50 (SK-OV-3): 65.3 µM (inactive) | GI50 (SNB-19): > 100 µM (inactive) | GI50 (SNB-75): 28 µM (inactive) | GI50 (SW-620): 79.6 µM (inactive) | GI50 (TK-10): > 100 µM (inactive) | GI50 (UACC-62): > 100 µM (inactive)

OCC1OC(n2cnc3c(Cl)nc(Nc4ccccc4)nc32)CC1O (stereo not given)
GI50 (786-0): > 100 µM (inactive) | GI50 (A498): 70 µM (inactive) | GI50 (A549): 17.7 µM (inactive) | GI50 (CCRF-CEM): 26.1 µM (inactive) | GI50 (DU-145): > 100 µM (inactive) | GI50 (HCT-116): > 100 µM (inactive) | GI50 (KM12): > 100 µM (inactive) | GI50 (MDA-N): 75.5 µM (inactive) | GI50 (MOLT-4): 23.6 µM (inactive) | GI50 (NCI-H226): > 100 µM (inactive) | GI50 (OVCAR-3): 75.5 µM (inactive) | GI50 (PC-3): > 100 µM (inactive) | GI50 (SF-295): > 100 µM (inactive) | GI50 (SF-539): > 100 µM (inactive) | GI50 (SK-OV-3): > 100 µM (inactive) | GI50 (SNB-19): > 100 µM (inactive) | GI50 (SNB-75): 42.6 µM (inactive) | GI50 (SW-620): > 100 µM (inactive) | GI50 (TK-10): > 100 µM (inactive) | GI50 (UACC-62): 40.5 µM (inactive)

CN(C)CCNC(=O)Cn1ccc(=O)c2c([N+](=O)[O-])cccc21
GI50 (786-0): > 100 µM (inactive) | GI50 (A498): > 100 µM (inactive) | GI50 (A549): > 100 µM (inactive) | GI50 (CCRF-CEM): > 100 µM (inactive) | GI50 (DU-145): > 100 µM (inactive) | GI50 (HCT-116): > 100 µM (inactive) | GI50 (KM12): > 100 µM (inactive) | GI50 (MDA-N): > 100 µM (inactive) | GI50 (MOLT-4): > 100 µM (inactive) | GI50 (NCI-H226): > 100 µM (inactive) | GI50 (OVCAR-3): > 100 µM (inactive) | GI50 (PC-3): > 100 µM (inactive) | GI50 (SF-295): > 100 µM (inactive) | GI50 (SF-539): > 100 µM (inactive) | GI50 (SK-OV-3): > 100 µM (inactive) | GI50 (SNB-19): > 100 µM (inactive) | GI50 (SNB-75): > 100 µM (inactive) | GI50 (SW-620): > 100 µM (inactive) | GI50 (TK-10): > 100 µM (inactive) | GI50 (UACC-62): > 100 µM (inactive)

CN(CCN(C)Cc1ccc(Cl)c(Cl)c1)CCN1CCCC1
GI50 (786-0): 17.1 µM (inactive) | GI50 (A498): 16.1 µM (inactive) | GI50 (A549): 22.6 µM (inactive) | GI50 (CCRF-CEM): 3.72 µM (inactive) | GI50 (DU-145): 61.2 µM (inactive) | GI50 (HCT-116): 13.1 µM (inactive) | GI50 (KM12): 29.9 µM (inactive) | GI50 (MDA-N): 13.2 µM (inactive) | GI50 (MOLT-4): 9.33 µM (inactive) | GI50 (NCI-H226): 39.1 µM (inactive) | GI50 (OVCAR-3): > 75.7 µM (inactive) | GI50 (PC-3): 32.5 µM (inactive) | GI50 (SF-295): 26.1 µM (inactive) | GI50 (SF-539): 19.6 µM (inactive) | GI50 (SK-OV-3): 71.9 µM (inactive) | GI50 (SNB-19): > 49.3 µM (inactive) | GI50 (SNB-75): 26 µM (inactive) | GI50 (SW-620): 24.3 µM (inactive) | GI50 (TK-10): 40 µM (inactive) | GI50 (UACC-62): 2.79 µM (inactive)

CCOC(=O)C1=C(C)C(C(=O)OC)/C(=C/c2cccc3cccnc23)C1=O (stereo not given)
GI50 (786-0): > 10 µM (inactive) | GI50 (A498): > 10 µM (inactive) | GI50 (A549): > 10 µM (inactive) | GI50 (CCRF-CEM): > 10 µM (inactive) | GI50 (DU-145): > 10 µM (inactive) | GI50 (HCT-116): > 10 µM (inactive) | GI50 (KM12): > 10 µM (inactive) | GI50 (MDA-N): > 10 µM (inactive) | GI50 (MOLT-4): > 10 µM (inactive) | GI50 (NCI-H226): > 10 µM (inactive) | GI50 (OVCAR-3): > 10 µM (inactive) | GI50 (PC-3): > 10 µM (inactive) | GI50 (SF-295): > 10 µM (inactive) | GI50 (SF-539): > 10 µM (inactive) | GI50 (SK-OV-3): > 10 µM (inactive) | GI50 (SNB-19): > 10 µM (inactive) | GI50 (SNB-75): > 10 µM (inactive) | GI50 (SW-620): > 10 µM (inactive) | GI50 (TK-10): > 10 µM (inactive) | GI50 (UACC-62): > 10 µM (inactive)
